# Experimental data taken from US4578380A, “5H-[1]benzopyrano[2,3-d]pyrimidine derivatives useful for controlling lesions of the gastric and duodenal mucous membranes” (Warner-Lambert Company, priority 1983, dated 1986).
# Tests used:
# Gastric Acid Secretion = experiment: Test for the Inhibition of the Gastric Acid Secretion According to Ghosh and Schild; format: in vivo, male rats (Sprague Dawley SIV 50); settings: rat
# Protocol: 3. Test for the Inhibition of the Gastric Acid Secretion According to Ghosh and Schild (Brit. J. Pharmacol. 13 pp 54-61 (1958) The test animals were male rats (Sprague Dawley SIV 50) weighing between 300-450 g. The animals were kept fasting 24 hours before starting the test, water being available ad libitum. The animals were anesthetized with 1.25 g/kg urethane IP. Trachea, vena jugularis, arteria carotis, and oesophagus were exposed, and a fistula placed at the pylorus. Via an oesophagus tube the stomach was perfused with 1/4000 N NaOH at a flow rate of 3 ml/min. By means of the NaOH perfusion the pH of the gastric juice was adjusted to about pH 7 and continuously measured with a measuring electrode. Via the vena jugularis the acid-stimulating substance (carbachol 0.25 μg/kg/min or pentagastrin 1 μg/kg/min) was infused.
# [1] = tested on: Indomethacin-Induced Ulcer; experiment: Indomethacin-Induced Ulcer; format: in vivo, male rats (Sprague Dawley SIV 50); settings: rat
# Protocol: 1. Indomethacin-Induced Ulcer Test animals were male rats (Sprague Dawley SIV 50) weighing between 150-200 g. The animals were kept fasting 24 hours before starting the test, drinking water being available ad libitum. The animals were alloted to three groups, each group comprising ten rats. […] Five hours following administration the animals were killed with CO2 gas, the stomachs removed and opened along the greater curvature. After measuring the pH value the stomach was tested for ulcerations under a stereo magnifying glass. The method described by Chaumontet, et al. Arzneimittelforschung/Drug Research 28 (II) pp 2119-2121 (1978) was used to rate the ulcerations and calculate the ulcer index (UI). The effect of the substances was rendered as the percentage inhibition of the ulcers caused by indomethacin in comparison to the untreated reference group.
# Cold-Stress Ulcer = experiment: Cold-Stress Ulcer; format: in vivo, male rats (Sprague Dawley SIV 50); settings: rat
# Protocol: 2. Cold-Stress Ulcer Test animals were male rats (Sprague Dawley SIV 50) weighing between 110 and 150 g. The animals were kept fasting 24 hours before starting the test, drinking water being available ad libitum. […] Immediately after administration of the substances the animals were anesthetized with […] on their backs, fixed with adhesive tapes to wooden boards. Thus rendered immobile the animals were put into a permanently lit room, ambient temperature +15° C., relative humidity 50-60%, for 14 hours. After this time of exposure the rats were killed with CO2, the stomachs removed and opened along the greater curvature. After measuring the pH value the gastric mucosa was tested for ulcerations under a stereo magnifying glass. The ulcerations were rated and the ulcer index (UI) calculated as described for test 1, the effect of the substances being expressed as the percentage inhibition of the ulcer formation in comparison to the untreated control group.
# gastric mucous membrane = settings: cited from earlier work
# [2] = 250 mg/kg (dose column: i.g.; method: duodenal catheter)
# [3] = 125 mg/kg (dose column: i.g.; method: duodenal catheter)
SMILES,Antisecretion (Gosh + Schild Model) (Gastric Acid Secretion; [2]),"Protective Action in %, ""Indomethacin"" ulcer model ([1]; 250 mg/kg i.g.)",Antisecretion (Gosh + Schild Model) (Gastric Acid Secretion; [3]),"Protective Action in %, ""Stress"" ulcer model (Cold-Stress Ulcer; 125 mg/kg i.g.)","Protective Action in %, ""Indomethacin"" ulcer model ([1]; 125 mg/kg i.g.)",other results
"Cc1ccc(-c2nc3c(c(SCCCN4CCOCC4)n2)Cc2ccccc2O3)cc1 [Compound (26), 2-(4-methylphenyl)-4-(3-morpholinopropylthio)-5H-[1]benzopyrano[2,3-d]pyrimidine]",No effect,50%,–,–,–,–
"CN(C)CCCSc1nc(-c2ccccc2)nc2c1Cc1ccccc1O2 [Compound (1), 4-(3-dimethylaminopropylthio)-2-phenyl-5H-[1]benzopyrano[2,3-d]pyrimidine]",No effect,95%,No effect,70%,88%,"Protective Action in %, ""Stress"" ulcer model (Cold-Stress Ulcer; 250 mg/kg i.g.): 86%"
"CN/C(=N/CCSCc1nc[nH]c1C)NC#N [Cimetidine, reference compound]",–,–,–,–,–,"Antisecretion (Gosh + Schild Model): pH reached (Gastric Acid Secretion; 5 mg/kg i.v., after 35 min): 7.9 pH; Antisecretion (Gosh + Schild Model): time after which pH 7.9 was reached (Gastric Acid Secretion; 5 mg/kg i.v.): 35 min; Protective Action in %, ""Stress"" ulcer model (Cold-Stress Ulcer; 100 mg/kg i.g.): 53%; Protective Action in %, ""Stress"" ulcer model (Cold-Stress Ulcer; 200 mg/kg i.g.): 54%; undesired side effects (gastric mucous membrane; general statement in therapy): undesired CNS and other side effects; changes of the gastric mucous membrane / relapse ulcers (gastric mucous membrane; long-term treatment, following discontinuation): changes of the gastric mucous membrane found under long-term treatment; Protective Action in %, ""Indomethacin"" ulcer model ([1]; 100 mg/kg i.g.): 80%; Protective Action in %, ""Indomethacin"" ulcer model ([1]; 200 mg/kg i.g.): 89%; Protective Action in %, ""Indomethacin"" ulcer model ([1]; 3 × 100 mg/kg i.g.): 39%"
"CNCCCSc1nc(-c2ccc(C)cc2)nc2c1Cc1ccccc1O2 [Compound (27a), 4-(3-methylaminopropylthio)-2-(4-methylphenyl)-5H-[1]benzopyrano[2,3-d]pyrimidine]",No effect,94%,–,–,–,–
Cc1ccc(-c2nc3c(c(SCCCN(C)C)n2)Cc2ccccc2O3)cc1 [Compound (16)],No effect,99.5%,No effect,72%,83%,–
